Patent publication US4613355A, “Antibiotic having herbicidal activity” (Satoshi Omura, priority 1983, dated 1986)
Where a name gives a salt, the structure may show the parent alone.

Columns and labels:
Format in all cases: in vivo
[1] = test system: Allium fistulosum; assay: Foliage treatment (Example 8); set-up: key: 0 indicates no effect; 5 indicates complete kill; settings: Plant No. 27 Allium fistulosum
Procedure: (§1) Aqueous solutions of Phosalacine (Na salt) at different concentrations were applied at a rate of 1500 liters per hectare to naturally occurring plants or plants which were cultured on plates as shown in the following Table at certain stages of growth. […]

[2] = test system: Arctium lappa; assay: Foliage treatment (Example 8); set-up: key: 0 indicates no effect; 5 indicates complete kill; settings: Plant No. 30 Arctium lappa, 14 days
Procedure: as §1

[3] = test system: Artemisia princeps; assay: Foliage treatment (Example 8); set-up: key: 0 indicates no effect; 5 indicates complete kill; settings: Plant No. 1 Artemisia princeps
Procedure: as §1

[4] = test system: Brassica oleracea; assay: Foliage treatment (Example 8); set-up: key: 0 indicates no effect; 5 indicates complete kill; settings: Plant No. 28 Brassica oleracea
Procedure: as §1

[5] = test system: Cucumis sativus; assay: Foliage treatment (Example 8); set-up: key: 0 indicates no effect; 5 indicates complete kill; settings: Plant No. 33 Cucumis sativus
Procedure: as §1

[6] = test system: Eleucine indica var. carocana; assay: Foliage treatment (Example 8); set-up: key: 0 indicates no effect; 5 indicates complete kill; settings: Plant No. 24 Eleucine indica var. carocana
Procedure: as §1

[7] = test system: Euphonia supina; assay: Foliage treatment (Example 8); set-up: key: 0 indicates no effect; 5 indicates complete kill; settings: Plant No. 36 Euphonia supina
Procedure: as §1

[8] = test system: Glycine max; assay: Foliage treatment (Example 8); set-up: key: 0 indicates no effect; 5 indicates complete kill; settings: Plant No. 34 Glycine max
Procedure: as §1

[9] = test system: Miscanthus sinensis; assay: Foliage treatment (Example 8); set-up: key: 0 indicates no effect; 5 indicates complete kill; settings: Plant No. 5 Miscanthus sinensis
Procedure: as §1

[10] = test system: Oxalis corniculata; assay: Foliage treatment (Example 8); set-up: key: 0 indicates no effect; 5 indicates complete kill; settings: Plant No. 35 Oxalis corniculata
Procedure: as §1

[11] = test system: Castanea crenata; assay: Foliage treatment of naturally growing weeds and brush (Example 9); set-up: key: 0 indicates no effect; 5 indicates complete kill; settings: Plant No. 8 Castanea crenata, One month
Excerpt: (§2) Aqueous solutions of Phosalacine (Na salt) at different concentrations and 0.1% of octylphenylpolyoxy ethanol as surfactant were applied to the area where various weeds and brush were naturally growing at a rate of 1500 liter per hectare. One month after the foliage treatment, damage to weeds and brush was visually assessed on a scale of from 0 to 5 where 0 indicates no effect and 5 indicates complete kill as hereinbefore defined.

[12] = test system: Pteridium aquilinum; assay: as above; set-up: key: 0 indicates no effect; 5 indicates complete kill; settings: Plant No. 20 Pteridium aquilinum, One month
Excerpt: as §2

[13] = test system: Rubus palmatus; assay: as above; set-up: key: 0 indicates no effect; 5 indicates complete kill; settings: Plant No. 18 Rubus palmatus, One month
Excerpt: as §2

[14] = test system: Smilax china; assay: as above; set-up: key: 0 indicates no effect; 5 indicates complete kill; settings: Plant No. 17 Smilax china, One month
Excerpt: as §2

[15] = test system: Viburnum dilatatum; assay: as above; set-up: key: 0 indicates no effect; 5 indicates complete kill; settings: Plant No. 21 Viburnum dilatatum, One month
Excerpt: as §2

[16] = test system: Zanthoxylum piperitum; assay: as above; set-up: key: 0 indicates no effect; 5 indicates complete kill; settings: Plant No. 19 Zanthoxylum piperitum, One month
Excerpt: as §2

[17] = test system: various weeds and brush (overall evaluation); assay: as above; set-up: key: 0 indicates no effect; 5 indicates complete kill; settings: OE overall evaluation, One month
Excerpt: as §2

[18] = test system: Chamaecyparis obtusa; assay: Foliage treatment of woody plants (Example 10); set-up: key to damage to the plants, scale 0 to 5: 0 indicates no effect; 5 indicates complete kill; settings: CH Chamaecyparis obtusa
Excerpt: (§3) Aqueous solutions containing Phosalacine (Na salt) at different concentrations and 0.1% of octylphenylpolyoxy ethanol as surfactant were applied at a rate of 1500 liter per hectare to woody plants of about 60-70 cm in height. 7 and 14 days after the foliage treatment, damage to the plants was visually assessed on a scale of from 0 to 5 (cf. Example 7).

[19] = test system: Cryptomeria japonica; assay: Foliage treatment of woody plants (Example 10); set-up: key to damage to the plants, scale 0 to 5: 0 indicates no effect; 5 indicates complete kill; settings: CP Cryptomeria japonica
Excerpt: as §3

CC(C)C[C@H](NC(=O)[C@H](C)NC(=O)[C@@H](N)CCP(C)(=O)O)C(=O)O [Phosalacine (Na salt)]
4: damage to the plants, scale 0 to 5 ([2]; 0.05%) | damage to the plants, scale 0 to 5 ([3]; 0.05%, 14 days) | damage to the plants, scale 0 to 5 ([4]; 0.05%, 14 days) | damage to the plants, scale 0 to 5 ([5]; 0.05%, 14 days) | damage to the plants, scale 0 to 5 ([6]; 0.05%, 14 days) | damage to the plants, scale 0 to 5 ([7]; 0.05%, 14 days) | damage to the plants, scale 0 to 5 ([9]; 0.05%, 14 days) | damage to the plants, scale 0 to 5 ([10]; 0.05%, 14 days)
2: damage to the plants, scale 0 to 5 ([19]; 0.5%, 14 days)
3: damage to the plants, scale 0 to 5 ([1]; 0.05%, 7 days) | damage to the plants, scale 0 to 5 ([3]; 0.05%, 7 days) | damage to the plants, scale 0 to 5 ([4]; 0.05%, 7 days) | damage to the plants, scale 0 to 5 ([5]; 0.05%, 7 days) | damage to the plants, scale 0 to 5 ([6]; 0.05%, 7 days) | damage to the plants, scale 0 to 5 ([7]; 0.05%, 7 days) | damage to the plants, scale 0 to 5 ([8]; 0.05%, 7 days) | damage to the plants, scale 0 to 5 ([9]; 0.05%, 7 days) | damage to the plants, scale 0 to 5 ([10]; 0.05%, 7 days) | damage to weeds and brush, scale 0 to 5 ([11]; 0.05%) | damage to weeds and brush, scale 0 to 5 ([12]; 0.05%) | damage to weeds and brush, scale 0 to 5 ([13]; 0.05%) | damage to weeds and brush, scale 0 to 5 ([14]; 0.05%) | damage to weeds and brush, scale 0 to 5 ([15]; 0.05%) | damage to weeds and brush, scale 0 to 5 ([16]; 0.05%) | damage to weeds and brush, scale 0 to 5 ([17]; 0.05%)
5: damage to the plants, scale 0 to 5 ([1]; 0.05%, 14 days) | damage to the plants, scale 0 to 5 ([1]; 0.1%, 7 days) | damage to the plants, scale 0 to 5 ([1]; 0.1%, 14 days) | damage to the plants, scale 0 to 5 ([2]; 0.1%) | damage to the plants, scale 0 to 5 ([3]; 0.1%, 7 days) | damage to the plants, scale 0 to 5 ([3]; 0.1%, 14 days) | damage to the plants, scale 0 to 5 ([4]; 0.1%, 7 days) | damage to the plants, scale 0 to 5 ([4]; 0.1%, 14 days) | damage to the plants, scale 0 to 5 ([5]; 0.1%, 7 days) | damage to the plants, scale 0 to 5 ([5]; 0.1%, 14 days) | damage to the plants, scale 0 to 5 ([6]; 0.1%, 7 days) | damage to the plants, scale 0 to 5 ([6]; 0.1%, 14 days) | damage to the plants, scale 0 to 5 ([7]; 0.1%, 7 days) | damage to the plants, scale 0 to 5 ([7]; 0.1%, 14 days) | damage to the plants, scale 0 to 5 ([8]; 0.05%, 14 days) | damage to the plants, scale 0 to 5 ([8]; 0.1%, 7 days) | damage to the plants, scale 0 to 5 ([8]; 0.1%, 14 days) | damage to the plants, scale 0 to 5 ([9]; 0.1%, 7 days) | damage to the plants, scale 0 to 5 ([9]; 0.1%, 14 days) | damage to the plants, scale 0 to 5 ([10]; 0.1%, 7 days) | damage to the plants, scale 0 to 5 ([10]; 0.1%, 14 days) | damage to weeds and brush, scale 0 to 5 ([11]; 0.1%) | damage to weeds and brush, scale 0 to 5 ([11]; 0.2%) | damage to weeds and brush, scale 0 to 5 ([12]; 0.1%) | damage to weeds and brush, scale 0 to 5 ([12]; 0.2%) | damage to weeds and brush, scale 0 to 5 ([13]; 0.1%) | damage to weeds and brush, scale 0 to 5 ([13]; 0.2%) | damage to weeds and brush, scale 0 to 5 ([14]; 0.1%) | damage to weeds and brush, scale 0 to 5 ([14]; 0.2%) | damage to weeds and brush, scale 0 to 5 ([15]; 0.1%) | damage to weeds and brush, scale 0 to 5 ([15]; 0.2%) | damage to weeds and brush, scale 0 to 5 ([16]; 0.1%) | damage to weeds and brush, scale 0 to 5 ([16]; 0.2%) | damage to weeds and brush, scale 0 to 5 ([17]; 0.1%) | damage to weeds and brush, scale 0 to 5 ([17]; 0.2%)
0: damage to the plants, scale 0 to 5 ([18]; 0.125%, 7 days) | damage to the plants, scale 0 to 5 ([18]; 0.125%, 14 days) | damage to the plants, scale 0 to 5 ([18]; 0.25%, 7 days) | damage to the plants, scale 0 to 5 ([18]; 0.25%, 14 days) | damage to the plants, scale 0 to 5 ([18]; 0.5%, 7 days) | damage to the plants, scale 0 to 5 ([18]; 0.5%, 14 days) | damage to the plants, scale 0 to 5 ([19]; 0.125%, 7 days) | damage to the plants, scale 0 to 5 ([19]; 0.125%, 14 days) | damage to the plants, scale 0 to 5 ([19]; 0.25%, 7 days) | damage to the plants, scale 0 to 5 ([19]; 0.5%, 7 days)
1: damage to the plants, scale 0 to 5 ([19]; 0.25%, 14 days)
